Values after ≈ are worked out from the molar mass of the structure shown.
Columns and labels:
Assay type in all cases: functional
[1] = Antiinflammatory activity against heat-induced albumin denaturation at […] preincubated for 15 mins before heat induction by UV-vis spectrophotometer analysis
Shigella flexneri [2] = experiment: Antimicrobial activity against Shigella flexneri MTCC 1457 at 50 ug/ml after 24 hrs by agar disc diffusion method; conditions: MTCC 1457, 24 h, read-out: DIZ
[3] = Antioxidant activity against ferric chloride-induced lipid peroxidation using egg lecithin at 10 ug/ml after 1 hr
Staphylococcus aureus [4] = experiment: Antimicrobial activity against Staphylococcus aureus MTCC 96 at 100 ug/ml after 24 hrs by agar disc diffusion method; conditions: MTCC 96, 24 h, read-out: DIZ
Klebsiella pneumoniae [5] = experiment: Antimicrobial activity against Klebsiella pneumoniae MTCC 3384 at 50 ug/ml after 24 hrs by agar disc diffusion method; conditions: MTCC 3384, 24 h, read-out: DIZ
[6] = Antioxidant activity assessed as reducing power of ferric ion at 100 ug/ml after 20 mins; parameters: scale not given: the % may be the effect or the level left
[7] = tested on: Radical scavenging activity; experiment: Antioxidant activity assessed as DPPH free radical scavenging activity at 10 ug/ml after 20 mins
[8] = Antioxidant activity assessed as reducing power of ferric ion at 10 ug/ml after 20 mins; parameters: scale not given: the % may be the effect or the level left
[9] = Antioxidant activity against ferric chloride-induced lipid peroxidation using egg lecithin at 50 ug/ml after 1 hr
[10] = tested on: Radical scavenging activity; experiment: Antioxidant activity assessed as DPPH free radical scavenging activity at 50 ug/ml after 20 mins
Staphylococcus aureus [11] = experiment: Antimicrobial activity against Staphylococcus aureus MTCC 96
Staphylococcus aureus [12] = experiment: Antimicrobial activity against Staphylococcus aureus MTCC 96 at 50 ug/ml after 24 hrs by agar disc diffusion method; conditions: MTCC 96, 24 h, read-out: DIZ
[13] = Antioxidant activity against ferric chloride-induced lipid peroxidation using egg lecithin at 100 ug/ml after 1 hr
Bacillus cereus [14] = experiment: Antimicrobial activity against Bacillus cereus MTCC 8372 at 50 ug/ml after 24 hrs by agar disc diffusion method; conditions: MTCC 8372, 24 h, read-out: DIZ
Aspergillus flavus [15] = experiment: Antimicrobial activity against Aspergillus flavus MTCC 873
Aspergillus niger [16] = experiment: Antimicrobial activity against Aspergillus niger MTCC 281
[17] = tested on: Radical scavenging activity; experiment: Antioxidant activity assessed as DPPH free radical scavenging activity at 100 ug/ml after 20 mins
Aspergillus niger [18] = experiment: Antimicrobial activity against Aspergillus niger MTCC 281 at 100 ug/ml after 24 hrs by agar disc diffusion method; conditions: MTCC 281, 24 h, read-out: DIZ
Bacillus cereus [19] = experiment: Antimicrobial activity against Bacillus cereus MTCC 8372
Bacillus cereus [20] = experiment: Antimicrobial activity against Bacillus cereus MTCC 8372 at 100 ug/ml after 24 hrs by agar disc diffusion method; conditions: MTCC 8372, 24 h, read-out: DIZ
Klebsiella pneumoniae [21] = experiment: Antimicrobial activity against Klebsiella pneumoniae MTCC 3384 at 100 ug/ml after 24 hrs by agar disc diffusion method; conditions: MTCC 3384, 24 h, read-out: DIZ
[22] = Antioxidant activity assessed as reducing power of ferric ion at 50 ug/ml after 20 mins; parameters: scale not given: the % may be the effect or the level left
Escherichia coli [23] = experiment: Antimicrobial activity against Escherichia coli MTCC 724
Aspergillus flavus [24] = experiment: Antimicrobial activity against Aspergillus flavus MTCC 873 at 50 ug/ml after 24 hrs by agar disc diffusion method; conditions: MTCC 873, 24 h, read-out: DIZ
Aspergillus niger [25] = experiment: Antimicrobial activity against Aspergillus niger MTCC 281 at 50 ug/ml after 24 hrs by agar disc diffusion method; conditions: MTCC 281, 24 h, read-out: DIZ
Klebsiella pneumoniae [26] = experiment: Antimicrobial activity against Klebsiella pneumoniae MTCC 3384
Escherichia coli [27] = experiment: Antimicrobial activity against Escherichia coli MTCC 724 at 100 ug/ml after 24 hrs by agar disc diffusion method; conditions: MTCC 724, 24 h, read-out: DIZ
Aspergillus flavus [28] = experiment: Antimicrobial activity against Aspergillus flavus MTCC 873 at 100 ug/ml after 24 hrs by agar disc diffusion method; conditions: MTCC 873, 24 h, read-out: DIZ
Shigella flexneri [29] = experiment: Antimicrobial activity against Shigella flexneri MTCC 1457
Escherichia coli [30] = experiment: Antimicrobial activity against Escherichia coli MTCC 724 at 50 ug/ml after 24 hrs by agar disc diffusion method; conditions: MTCC 724, 24 h, read-out: DIZ
Shigella flexneri [31] = experiment: Antimicrobial activity against Shigella flexneri MTCC 1457 at 100 ug/ml after 24 hrs by agar disc diffusion method; conditions: MTCC 1457, 24 h, read-out: DIZ

Structure (SMILES) | inhibition [1] [%] | zone of inhibition at 50 µg/mL (Shigella flexneri [2]) [mm] | inhibition [3] [%] | zone of inhibition at 100 µg/mL (Staphylococcus aureus [4]) [mm] | zone of inhibition at 50 µg/mL (Klebsiella pneumoniae [5]) [mm] | Activity [6] [%] | Activity [7] [%] | Activity [8] [%] | inhibition [9] [%] | Activity [10] [%] | MIC (Staphylococcus aureus [11]) [µg/mL] | zone of inhibition at 50 µg/mL (Staphylococcus aureus [12]) [mm] | inhibition [13] [%] | zone of inhibition at 50 µg/mL (Bacillus cereus [14]) [mm] | MIC (Aspergillus flavus [15]) [µg/mL] | MIC (Aspergillus niger [16]) [µg/mL] | Activity [17] [%] | zone of inhibition at 100 µg/mL (Aspergillus niger [18]) [mm] | MIC (Bacillus cereus [19]) [µg/mL] | zone of inhibition at 100 µg/mL (Bacillus cereus [20]) [mm] | also measured
Oc1ccc(C2=NN(c3ccccc3)C(c3noc(-c4ccc(Cl)cc4)n3)C2)cc1 (stereo not given) | 74.6 | 8 | 40 | 10 | 10 | 76 | 30 | 14 | 61 | 51 | 25 (≈ 60 µM) | 6 | 80 | 8 | 15 (≈ 36 µM) | 10 (≈ 24 µM) | 70 | 18 | 20 (≈ 48 µM) | 10 | zone of inhibition at 100 µg/mL (Klebsiella pneumoniae [21]): 12 mm; Activity [22]: 26%; MIC (Escherichia coli [23]): 20 µg/mL (≈ 48 µM); zone of inhibition at 50 µg/mL (Aspergillus flavus [24]): 10 mm; zone of inhibition at 50 µg/mL (Aspergillus niger [25]): 12 mm; MIC (Klebsiella pneumoniae [26]): 15 µg/mL (≈ 36 µM); zone of inhibition at 100 µg/mL (Escherichia coli [27]): 14 mm; zone of inhibition at 100 µg/mL (Aspergillus flavus [28]): 18 mm; MIC (Shigella flexneri [29]): 20 µg/mL (≈ 48 µM); zone of inhibition at 50 µg/mL (Escherichia coli [30]): 8 mm; zone of inhibition at 100 µg/mL (Shigella flexneri [31]): 18 mm
COc1ccc(C2=NN(c3ccccc3)C(c3noc(-c4ccccc4OC)n3)C2)cc1 (stereo not given) | 27.1 | 6 | 21 | 8 | 7 | 65 | 20 | 11 | 33 | 41 | 35 (≈ 82.1 µM) | 4 | 57 | 4 | 15 (≈ 35.2 µM) | 10 (≈ 23.4 µM) | 53 | 22 | 35 (≈ 82.1 µM) | 8 | zone of inhibition at 100 µg/mL (Klebsiella pneumoniae [21]): 8 mm; Activity [22]: 24%; MIC (Escherichia coli [23]): 25 µg/mL (≈ 58.6 µM); zone of inhibition at 50 µg/mL (Aspergillus flavus [24]): 10 mm; zone of inhibition at 50 µg/mL (Aspergillus niger [25]): 12 mm; MIC (Klebsiella pneumoniae [26]): 25 µg/mL (≈ 58.6 µM); zone of inhibition at 100 µg/mL (Escherichia coli [27]): 8 mm; zone of inhibition at 100 µg/mL (Aspergillus flavus [28]): 12 mm; MIC (Shigella flexneri [29]): 25 µg/mL (≈ 58.6 µM); zone of inhibition at 50 µg/mL (Escherichia coli [30]): 6 mm; zone of inhibition at 100 µg/mL (Shigella flexneri [31]): 10 mm
COc1ccc(C2=NN(c3ccccc3)C(/C(N)=N/O)C2)cc1 (stereo not given) | 23.8 | 6 | 10 | 12 | 6 | 62 | 18 | 10 | 16 | 33 | 50 (≈ 161 µM) | 2 | 14 | 4 | 30 (≈ 96.7 µM) | 15 (≈ 48.3 µM) | 55 | 12 | 35 (≈ 113 µM) | 16 | zone of inhibition at 100 µg/mL (Klebsiella pneumoniae [21]): 9 mm; Activity [22]: 22%; MIC (Escherichia coli [23]): 55 µg/mL (≈ 177 µM); zone of inhibition at 50 µg/mL (Aspergillus flavus [24]): 5 mm; zone of inhibition at 50 µg/mL (Aspergillus niger [25]): 10 mm; MIC (Klebsiella pneumoniae [26]): 25 µg/mL (≈ 80.6 µM); zone of inhibition at 100 µg/mL (Escherichia coli [27]): 8 mm; zone of inhibition at 100 µg/mL (Aspergillus flavus [28]): 10 mm; MIC (Shigella flexneri [29]): 25 µg/mL (≈ 80.6 µM); zone of inhibition at 50 µg/mL (Escherichia coli [30]): 3 mm; zone of inhibition at 100 µg/mL (Shigella flexneri [31]): 10 mm
COc1ccccc1-c1nc(C2CC(c3ccccc3)=NN2c2ccccc2)no1 (stereo not given) | 23.9 | 3 | 11 | 6 | 3 | 54 | 14 | 10 | 31 | 34 | 55 (≈ 139 µM) | 2 | 60 | 2 | 15 (≈ 37.8 µM) | 20 (≈ 50.4 µM) | 44 | 14 | 55 (≈ 139 µM) | 8 | zone of inhibition at 100 µg/mL (Klebsiella pneumoniae [21]): 6 mm; Activity [22]: 22%; MIC (Escherichia coli [23]): 35 µg/mL (≈ 88.3 µM); zone of inhibition at 50 µg/mL (Aspergillus flavus [24]): 10 mm; zone of inhibition at 50 µg/mL (Aspergillus niger [25]): 8 mm; MIC (Klebsiella pneumoniae [26]): 55 µg/mL (≈ 139 µM); zone of inhibition at 100 µg/mL (Escherichia coli [27]): 6 mm; zone of inhibition at 100 µg/mL (Aspergillus flavus [28]): 12 mm; MIC (Shigella flexneri [29]): 50 µg/mL (≈ 126 µM); zone of inhibition at 50 µg/mL (Escherichia coli [30]): 4 mm; zone of inhibition at 100 µg/mL (Shigella flexneri [31]): 8 mm
Oc1ccc(C2=NN(c3ccccc3)C(c3noc(-c4ccc(O)cc4)n3)C2)cc1 (stereo not given) | 69.7 | 14 | 34 | 12 | 10 | 76 | 31 | 12 | 58 | 47 | 20 (≈ 50.2 µM) | 8 | 78 | 6 | 10 (≈ 25.1 µM) | 10 (≈ 25.1 µM) | 86 | 22 | 25 (≈ 62.7 µM) | 10 | zone of inhibition at 100 µg/mL (Klebsiella pneumoniae [21]): 16 mm; Activity [22]: 30%; MIC (Escherichia coli [23]): 10 µg/mL (≈ 25.1 µM); zone of inhibition at 50 µg/mL (Aspergillus flavus [24]): 12 mm; zone of inhibition at 50 µg/mL (Aspergillus niger [25]): 14 mm; MIC (Klebsiella pneumoniae [26]): 15 µg/mL (≈ 37.6 µM); zone of inhibition at 100 µg/mL (Escherichia coli [27]): 20 mm; zone of inhibition at 100 µg/mL (Aspergillus flavus [28]): 20 mm; MIC (Shigella flexneri [29]): 10 µg/mL (≈ 25.1 µM); zone of inhibition at 50 µg/mL (Escherichia coli [30]): 12 mm; zone of inhibition at 100 µg/mL (Shigella flexneri [31]): 22 mm
